Reference: patent publication US20240043943A1, “METHODS AND COMPOSITIONS FOR PROTEASE REPORTER ASSAYS AND MODULATORS” (712 NORTH, INC., priority 2021, published 2024)
Entries after “also recorded” stand apart in the source; their conditions may differ.

Assays:
OMA1 protease [1] = molecular target: T1, OMA1 protease (Homo sapiens, UniProt Q96E52); experiment: Rep#15 / Luke-S1 OMA1 reporter bioluminescence assay in Hek293T cells; format: cell-based; parameters: The OMA1 enzyme is dormant under physiological cell culture conditions in these cells; endogenous in cells; host or cells: Hek293T cells, transiently or stably (Luke-S1 line, ATCC PTA-127022) expressing reporter #15; conditions: Hek293T, 30 minutes exposure; CCCP 10 μM
T1 sequence (Q96E52 144-524): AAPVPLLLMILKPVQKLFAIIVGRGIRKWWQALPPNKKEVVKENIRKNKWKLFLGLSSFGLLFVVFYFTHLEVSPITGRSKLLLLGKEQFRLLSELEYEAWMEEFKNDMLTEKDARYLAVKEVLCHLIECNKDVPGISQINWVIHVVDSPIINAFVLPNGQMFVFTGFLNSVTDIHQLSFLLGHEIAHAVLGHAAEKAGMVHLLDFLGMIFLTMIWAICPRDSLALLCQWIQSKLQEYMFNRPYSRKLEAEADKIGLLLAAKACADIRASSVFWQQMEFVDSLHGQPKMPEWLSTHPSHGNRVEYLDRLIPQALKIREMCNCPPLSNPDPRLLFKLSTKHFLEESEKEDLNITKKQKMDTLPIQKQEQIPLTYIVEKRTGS
Excerpt: Example 1 provides a nonlimiting example of generation and use of a reporter of present invention and illustrates its function. To this end, generation and use of reporter gene #01 (SEQ ID NO: 01) and reporter gene #15 (SEQ ID NO: 15) are described and their function compared to each other. The general design of a reporter of present invention is illustrated in FIG. 1A and its working principle in FIG. 1B. A reporter in general, and reporter gene #01 and reporter gene #15 in particular, can be generated as follows. DNA sequences of a reporter may be codon-optimized in silico or by any other way for expression in a suitable host. DNA sequences of reporter genes #01 and #15 were codon-optimized for expression in humans (SEQ ID NO: 02 and SEQ ID NO: 16, respectively). The (optimized) sequences were synthesized and cloned into a pcDNA3.1 expression vector under the control of a CMV promotor (see FIG. 1 for an illustration of such vector). Of course, an expression system and a host should match for best results. The host in this example were Hek293T cells, which were maintained under standard culture conditions in DMEM with 10% Fetal Bovine Serum and 1% Pen/Strep. For an experiment, Hek293T cells were seeded in opaque white tissue-culture treated 96-well plates at 80% confluency and transfected with vectors carrying reporter gene #01 and reporter gene #15 and 24 hours later incubated for 30 minutes at 37° C. in OptiMEM or in OptiMEM with 10 μM CCCP. After 30 minutes, the OptiMEM cell-culture media was replaced with luciferase substrate (furimazine, Promega) diluted 1:100 in OptiMEM, and bioluminescence was measured with a Fluoroskan Ascent FL (Thermo Scientific) using a 517 nm single-pass filter and 200 milliseconds integration time. […] Reporter #01 comprises a large part of OPA1's amino-terminus as mitochondrial targeting sequence, which is cleaved by the mitochondrial processing peptidase upon mitochondrial import (see Example 2). Reporter #15 was initially envisioned as a control for reporter #01. Reporter #15 therefore lacks the first 66 amino acids of reporter #01 believed to be essential for mitochondrial import.
Example 5 illustrates how mitochondrial toxicity can be measured with reporter and assays of present invention. The OMA1-OPA1 pathway basically serves as a “canary-in-the-coalmine” for a mitochondrial deterioration. […] Hek293T cells expressing reporter #01 and #15 were exposed to CCCP, tipranavir and sorafenib (in OptiMEM) for 30 minutes before the medium was replaced with furimazine (1:100), and bioluminescence measured.
The following non-limiting examples illustrate in more details the in vivo assessment of OMA1 protease activity utilizing an artificial luciferase reporter of present invention stably expressed in Hek293T cells.

OPA1 = OPA1 hydrolysis in Hek293T cells by Western blot; format: cell-based, human; conditions: 30 minutes
Excerpt: (§1) OPA1 hydrolysis can be monitored by Western blotting. […] The predicted size of full-length Luke-S1 is 31.8 kDa.

Luke-TEV reporter [2] = experiment: Luke-TEV reporter cleavage in Hek293T cells by Western blot; format: cell-based, human; conditions: 3 μM CCCP or 100 nM valinomycin
Excerpt: as §1

[3] = molecular target: T2, Luke (native NanoLuc enzyme) (Oplophorus gracilirostris, UniProt Q9GV45, A31E/A60N/A81I/F95D/I117V/K70R/L54V/L99Q/M102K/N193R/P142E/Q151K/Q38R/Q45L/V71I/Y165I); experiment: Luke (native NanoLuc) control cell bioluminescence assay in Hek293T cells; format: cell-based; conditions: for bioluminescence of Luke cells in dose-response: 30 minutes incubation
T2 construct: expressed in transfected cells
Excerpt: (§2) Luke-S1 is targeted to the mitochondrial inner membrane by an 86 amino acid portion of OPA1's […] with the protein sequence SEQ ID NO: 27 and the DNA sequence SEQ ID ID NO:28.

Luke-S1 reporter = experiment: Rep#15 / Luke-S1 reporter cleavage in Hek293T cells by Western blot; format: cell-based, human; conditions: for cleavage of the Luke-S1 reporter in Western blots: 3 μM CCCP or 100 nM valinomycin
Experimental: For this example, transfected cells were selected by puromycin. […] […] If reporter #15 indeed is cleaved by OMA1, then phenanthroline should prevent this at least to a certain extend by inhibiting OMA1 and accordingly preserving the signal. Hek293T cells were transfected with reporter gene #15 as described in the preceding example. After 24 hours, the transfected cells were incubated with 500 μM phenanthroline in OptiMEM. After 1 hour of pretreatment, CCCP in OptiMEM/phenanthroline was added. to a final concentration of 10 μM CCCP and cells incubated for another 30 minutes at 37° C. After 30 minutes, the medium was replaced with furimazine (1:100 in OptiMEM), and bioluminescence measured as described in Example 1.
as §1

reporter #01 = experiment: Rep#01 reporter hydrolysis in Hek293T cells by Western blot; format: cell-based, human; conditions: 10 μM CCCP, 30 minutes
Experimental: Example 2 refers to FIG. 4 and illustrates hydrolysis of reporter #01 and reporter #15. For this example, transfected cells were selected by puromycin. Reporter cells were exposed for 30 minutes to 10 μM CCCP before being harvested in RIPA buffer and subjected to 12% SDS-PAGE followed by Western-blotting. […] Full-length reporter #01 has a predicted size of 39.6 kDa but was not detected in Western blots. […] At the same time, reporter #15 is not processed upon import, but migrated at its expected size of 31.9 kDa. (Example 7 establishes mitochondrial import by showing co-migration of reporter #15 with OPA1 and OMA1 in mitochondria-enriched fractions.) Reporter #15 appears to be more abundant and stable, which may explain its better performance. […] This provides additional evidence that reporter #15 is indeed localized in mitochondria where it is recognized and hydrolyzed by OMA1. […] Therefore, phenanthroline was used as a positive control in the reporter assay. If reporter #15 indeed is cleaved by OMA1, then phenanthroline should prevent this at least to a certain extend by inhibiting OMA1 and accordingly preserving the signal. Hek293T cells were transfected with reporter gene #15 as described in the preceding example. […] After 30 minutes, the medium was replaced with furimazine (1:100 in OptiMEM), and bioluminescence measured as described in Example 1.

Luke-TEV reporter [4] = experiment: Luke-TEV control reporter bioluminescence assay in Hek293T cells; format: cell-based, human
Excerpt: as §2

OMA1 protease [5] = molecular target: T1, OMA1 protease; experiment: Rep#01 OMA1 reporter bioluminescence assay in Hek293T cells; format: cell-based; parameters: The OMA1 enzyme is dormant under physiological cell culture conditions in these cells; endogenous in cells; host or cells: Hek293T cells, transiently or stably (Luke-S1 line, ATCC PTA-127022) expressing reporter #15; conditions: 30 minutes exposure, CCCP 10 μM
Excerpt: Example 1 provides a nonlimiting example of generation and use of a reporter of present invention and illustrates its function. To this end, generation and use of reporter gene #01 (SEQ ID NO: 01) and reporter gene #15 (SEQ ID NO: 15) are described and their function compared to each other. The general design of a reporter of present invention is illustrated in FIG. 1A and its working principle in FIG. 1B. A reporter in general, and reporter gene #01 and reporter gene #15 in particular, can be generated as follows. DNA sequences of a reporter may be codon-optimized in silico or by any other way for expression in a suitable host. DNA sequences of reporter genes #01 and #15 were codon-optimized for expression in humans (SEQ ID NO: 02 and SEQ ID NO: 16, respectively). The (optimized) sequences were synthesized and cloned into a pcDNA3.1 expression vector under the control of a CMV promotor (see FIG. 1 for an illustration of such vector). Of course, an expression system and a host should match for best results. The host in this example were Hek293T cells, which were maintained under standard culture conditions in DMEM with 10% Fetal Bovine Serum and 1% Pen/Strep. For an experiment, Hek293T cells were seeded in opaque white tissue-culture treated 96-well plates at 80% confluency and transfected with vectors carrying reporter gene #01 and reporter gene #15 and 24 hours later incubated for 30 minutes at 37° C. in OptiMEM or in OptiMEM with 10 μM CCCP. After 30 minutes, the OptiMEM cell-culture media was replaced with luciferase substrate (furimazine, Promega) diluted 1:100 in OptiMEM, and bioluminescence was measured with a Fluoroskan Ascent FL (Thermo Scientific) using a 517 nm single-pass filter and 200 milliseconds integration time. […]
Example 5 illustrates how mitochondrial toxicity can be measured with reporter and assays of present invention. […] Hek293T cells expressing reporter #01 and #15 were exposed to CCCP, tipranavir and sorafenib (in OptiMEM) for 30 minutes before the medium was replaced with furimazine (1:100), and bioluminescence measured.

OMA1 protease [6] = molecular target: T1, OMA1 protease; conditions: literature; cited from earlier work
OMA1 protease [7] = molecular target: T1, OMA1 protease; experiment: Rep#15 / Luke-S1 OMA1 reporter bioluminescence assay in Hek293T cells; format: cell-based; parameters: The OMA1 enzyme is dormant under physiological cell culture conditions in these cells; endogenous in cells; host or cells: Hek293T cells, transiently or stably (Luke-S1 line, ATCC PTA-127022) expressing reporter #15
OMA1 protease [8] = molecular target: T1, OMA1 protease; experiment: Screen of 166 FDA-approved cancer drugs and 390 natural products in Luke-S1 assays; format: cell-based; parameters: The OMA1 enzyme is dormant under physiological cell culture conditions in these cells; endogenous in cells; host or cells: Hek293T cells, transiently or stably (Luke-S1 line, ATCC PTA-127022) expressing reporter #15; conditions: valinomycin treated controls, ± SD
Experimental: Luke-S1 reporter cells were incubated with 10 μM of drugs for 60 minutes after which luciferase substrate was added and bioluminescence measured.

T2 sequence (Q9GV45 with tags, fused parts or gaps with the stated changes): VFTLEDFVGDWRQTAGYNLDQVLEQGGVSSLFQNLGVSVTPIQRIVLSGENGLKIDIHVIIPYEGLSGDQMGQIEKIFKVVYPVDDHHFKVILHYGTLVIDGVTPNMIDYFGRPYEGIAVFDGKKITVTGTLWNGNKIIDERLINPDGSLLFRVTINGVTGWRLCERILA

Structure (SMILES)	bioluminescence signal of reporter #15 (OMA1 protease [1])	L-OPA1 proteolysis in Western blots (OPA1; 3 μM CCCP)	cleavage of the Luke-TEV reporter in Western blots (Luke-TEV reporter [2])	bioluminescence of Luke cells in dose-response [3]	cleavage of the Luke-S1 reporter in Western blots (Luke-S1 reporter)	processing of reporter #15 in Western blot (Luke-S1 reporter; 10 μM CCCP, 30 minutes)	processing of reporter #01 in Western blot (reporter #01)	EC50 (Luke-TEV reporter [4]; Luke-TEV cells, 30 minutes incubation)	bioluminescence signal of reporter #01 (OMA1 protease [5])	effect on OMA1 protease (OMA1 protease [6])	real-time bioluminescence of Luke-S1 vs cells without valinomycin (OMA1 protease [7]; 100 nM valinomycin added with luciferase substrate, 25 minutes recording)	Luke-S1 signal in cells treated with OMA1 siRNA (OMA1 protease [7]; 100 nM valinomycin, 30 minutes)	Luke-S1 signal in cells treated with control siRNA (OMA1 protease [7]; 100 nM valinomycin, 30 minutes)	Luke-S1 signal in cells treated with OMA1 siRNA (OMA1 protease [7]; 100 nM valinomycin, 30 minutes, listed as Valinomycin)	L-OPA1 proteolysis in Western blots (OPA1; 0.1 μM (100 nM) valinomycin)	real-time bioluminescence of Luke vs cells without valinomycin ([3]; 100 nM valinomycin added with luciferase substrate, after 10 minutes)	signal intensity normalized to untreated cells (100%) (OMA1 protease [8])	real-time bioluminescence of Luke-TEV vs cells without valinomycin (Luke-TEV reporter [4]; 100 nM valinomycin added with luciferase substrate)	signal of Luke-TEV cells in dose-response (Luke-TEV reporter [4]; 30 minutes incubation)
N#CC(C#N)=NNc1cccc(Cl)c1 [CCCP, carbonyl cyanide m-chlorophenyl hydrazone]	significantly reduced or substantially absent luciferase activity; also recorded: abolished; also recorded: significantly reduced bioluminescence	complete disappearance of L-OPA1 isoforms; also recorded: complete L-OPA1 proteolysis	cleaved; also recorded: induced Luke-S1 and Luke-TEV cleavage	completely eliminated	induced cleavage of the Luke-S1 reporter; also recorded: induced Luke-S1 and Luke-TEV cleavage	led to processing	led to processing	566 nM	significantly reduced bioluminescence	–	–	–	–	–	–	–	–	–	–
CC(C)[C@@H]1NC(=O)[C@H](C)OC(=O)[C@@H](C(C)C)NC(=O)[C@@H](C(C)C)OC(=O)[C@H](C(C)C)NC(=O)[C@H](C)OC(=O)[C@@H](C(C)C)NC(=O)[C@@H](C(C)C)OC(=O)[C@H](C(C)C)NC(=O)[C@H](C)OC(=O)[C@@H](C(C)C)NC(=O)[C@@H](C(C)C)OC1=O [valinomycin]	–	–	cleaved; also recorded: induced Luke-S1 and Luke-TEV cleavage	no effects	induced cleavage of the Luke-S1 reporter; also recorded: induced Luke-S1 and Luke-TEV cleavage	–	–	–	–	can activate the OMA1 protease	marked signal reduction	no significant signal reduction	significant signal reduction	not in Luke-S1 cells treated with OMA1 siRNA	sufficed for OPA1 cleavage; also recorded: complete L-OPA1 proteolysis	no notable differences	18.5%	much smaller difference	only a minor signal reduction
